Laboratory results from patent publication US20070134657A1, “Methods and compositions relating to gradient exposed cells” (GENERAL HOSPITAL CORPORATION, THE, priority 2002, published 2007).

Tests used:
human neutrophils = assay: Effect of signaling pathway inhibitors on directional neutrophil migration in IL-8 gradients (microfluidic device); assay type: cell-based; conditions: pretreated cells; IL-8 gradients in which chemotaxis and fugetaxis were seen
From the text: Microfluidic Migration Assay and Timelapse Microscopy: Neutrophils (1×10^3 cells) were placed uniformly across the migration channel and allowed to migrate under a linear gradient of human Interleukin-8 (72 a.a.; PeproTech, Rocky Hill, N.J.) in IMDM with 0.5% (w/v) FCS flowing at 0.1 mm/sec. […] Brightfield images were taken every 30 seconds using a C4742-95 Hamamatsu digital camera (Hamamatsu, Japan) controlled by IPLab 3.6.1 (Scanalytics, Fairfax, Va.). Cell movement was always observed at a set point along the migration channel. Gradients were also calibrated at this set point. Migration was quantified for all cells across the gradient.
Signaling Pathway Inhibitors: Cells were treated with pertussis toxin (100 ng/mL; 30 minutes at 37° C.), wortmannin (1 μM, 10 μM; 20 minutes at 37° C., 8-Br-cAMP (1 mM; 15 minutes at room temperature), 8-Br-cGMP (1 mM; 15 minutes at room temperature) (Sigma-Aldrich), or the CXCR2 non-peptide antagonist, SB225002 (1 pM, 100 pM, 1 nM, or 1 μM for 15 minutes at 37° C.; Calbiochem, Calif.). Immediately after treatment cells were seeded in migration channel of the microfluidic device and allowed to migrate as described above.
Since receptor occupancy is known to play a role in directional decision making and gradient sensing in the context of chemotaxing eukaryotic cells, it was postulated that chemokine receptor occupancy by a chemokine might also play a critical role in the decision of a cell to move up or down a chemokine gradient. Thus, a SB25002, the specific non-peptide antagonist of the IL-8 receptor, CXCR2 was utilized to examine this postulate. Neutrophils were pretreated with SB225002 at concentrations between 1 pM and 1 μM and then exposed to 0 to 1.2 μM gradients of IL-8 in microfabricated devices as described above. Videos of cell migration were analysed using MetaMorph and MathLab software to generate normalized angular frequencies determined for cells migrating in each of the three sectors of the gradient. The absence of inhibitor generates a normalized angular frequency of 1.0 whereas inhibition of fugetactic or chemotactic angular frequencies results in a normalized frequency of <1.0 and augmentation of either directional response results in a value greater than 1. This analysis allows to precisely quantitate the effect of a given concentration of inhibitor on the directional decision of the cell to move up or down a gradient. […] Furthermore, although IL-8 binds to both CXCR2 and CXCR1 on the cell surface, of the human neutrophil bi-directional signaling was evidently critically dependent on CXCR2.
It had been previously shown that the signaling pathway for chemotaxis is distinct from that for chemorepulsion or fugetaxis. […] The study of neutrophil migration in microfabricated devices allows to examine precisely the effects of these inhibitors on quantitative parameters of cell migration including the directional bias of cells in the context of precisely defined and stable chemokine gradients. Primary human neutrophils were pretreated with known inhibitors of the chemokine signal transduction pathway including pertussis toxin, wortmannin, genistein, 8-Br-cAMP and 8-Br-cGMP and then exposed to IL-8 gradients in which chemotaxis and fugetaxis were seen. The effect of the inhibitor on directional migration towards or away from the chemokine was quantitated by determining the directional motility index of cells migrating in the context of these gradients. Movement vector angles corresponding to movement up the gradient (30 to 150 degrees—see FIG. 13) were defined as chemotactic and measured movement vector angles corresponding to movement down the gradient (210 to 330 degrees—see figure) were defined as fugetactic. The directional choice of cells to move up or down a chemokine gradient were therefore compared in the presence and the absence of an inhibitor. […]

T-cell = conditions: response to SDF-1; cited from earlier work

| Compound | effect on neutrophil chemotaxis (angular frequency, movement up the gradient) (human neutrophils) | effect on neutrophil fugetaxis (angular frequency, movement down the gradient) (human neutrophils) | sensitivity of T-cell fugetaxis to inhibition, compared with chemotaxis (T-cell) | sensitivity of T-cell chemotaxis to inhibition, compared with fugetaxis (T-cell) |
| --- | --- | --- | --- | --- |
| Nc1ncnc2c1nc(Br)n2[C@@H]1O[C@@H]2COP(=O)(O)O[C@H]2[C@H]1O [8-Br-cAMP] | augmented | selectively inhibited | differentially more sensitive to inhibition | – |
| O=c1c(-c2ccc(O)cc2)coc2cc(O)cc(O)c12 [genistein] | – | – | – | differentially more sensitive to inhibition |
